Test results reported in publication PMC4073285, “Exploring the molecular mechanisms of electron shuttling across the microbe/metal space” (Frontiers in Microbiology, 2014).

Legend:
UndA = biological target: T1, UndA (Shewanella sp. HRCR_06, UniProt F8UWD6); assay: 1H NMR titration (heme methyl shifts); format: binding; details: oxidized protein; 20 mM potassium phosphate pH 7.6, 100 mM KCl, 2H2O, 25 °C
T1 construct: recombinant soluble undecaheme cytochrome from E. coli JM109(DE3) periplasm with pEC86; stop codon after the gene removes V5 and His6 tags; C-terminus encoded by primer GVDKVHPVKY

MtrC [1] = biological target: T2, MtrC (Shewanella oneidensis, UniProt Q8EG34); assay: 1H NMR titration (heme methyl shifts); format: binding; details: oxidized protein; 20 mM potassium phosphate pH 7.6, 100 mM KCl, 2H2O, 25 °C
T2 construct: recombinant soluble decaheme cytochrome from E. coli JM109(DE3) periplasm with pEC86; stop codon after the gene removes V5 and His6 tags; C-terminus encoded by primer HTKVKM

OmcA [2] = biological target: T3, OmcA (Shewanella oneidensis, UniProt Q8EG33); assay: 1H NMR titration (heme methyl shifts); format: binding; details: oxidized protein; 20 mM potassium phosphate pH 7.6, 100 mM KCl, 2H2O, 25 °C
T3 construct: recombinant soluble decaheme cytochrome expressed in S. oneidensis MR-1 from pBAD202/D-TOPO; stop codon after the gene removes V5 and His6 tags; C-terminus encoded by primer ...AIDGSTR N not altered (ends MEAHGN)

MtrC [3] = biological target: T2, MtrC; assay: […] NMR titration; format: binding; details: read-out: βd
OmcA [4] = biological target: T3, OmcA; assay: […] NMR titration; format: binding; details: read-out: βd
MtrF = biological target: T4, MtrF (Shewanella oneidensis, UniProt Q8EG32); assay: stopped-flow oxidation of reduced cytochrome at […] nm; format: biochemical; details: electron acceptor; 11 μM PMS, 0.31 μM protein, pH 7.6, 25 °C, anaerobic
T4 construct: recombinant soluble decaheme cytochrome expressed in S. oneidensis MR-1; stop codon after the gene removes V5 and His6 tags
T4 sequence (Q8EG32 24-639): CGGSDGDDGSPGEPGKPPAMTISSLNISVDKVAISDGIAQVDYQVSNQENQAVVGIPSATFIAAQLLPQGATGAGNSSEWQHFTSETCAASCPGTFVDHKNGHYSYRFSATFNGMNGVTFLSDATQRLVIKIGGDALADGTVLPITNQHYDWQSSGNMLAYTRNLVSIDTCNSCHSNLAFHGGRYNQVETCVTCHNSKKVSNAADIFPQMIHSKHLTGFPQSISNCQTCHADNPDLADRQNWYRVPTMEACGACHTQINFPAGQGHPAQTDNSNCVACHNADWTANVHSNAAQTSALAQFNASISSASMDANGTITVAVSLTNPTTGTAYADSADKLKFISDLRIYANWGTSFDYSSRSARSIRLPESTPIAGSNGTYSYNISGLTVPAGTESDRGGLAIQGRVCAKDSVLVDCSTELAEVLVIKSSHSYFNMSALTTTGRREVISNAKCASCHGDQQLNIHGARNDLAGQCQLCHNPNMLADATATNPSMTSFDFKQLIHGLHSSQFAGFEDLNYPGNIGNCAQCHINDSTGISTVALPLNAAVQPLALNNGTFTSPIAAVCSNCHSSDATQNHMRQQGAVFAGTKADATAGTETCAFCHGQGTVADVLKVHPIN

T2 sequence (Q8EG34 entry or part of it): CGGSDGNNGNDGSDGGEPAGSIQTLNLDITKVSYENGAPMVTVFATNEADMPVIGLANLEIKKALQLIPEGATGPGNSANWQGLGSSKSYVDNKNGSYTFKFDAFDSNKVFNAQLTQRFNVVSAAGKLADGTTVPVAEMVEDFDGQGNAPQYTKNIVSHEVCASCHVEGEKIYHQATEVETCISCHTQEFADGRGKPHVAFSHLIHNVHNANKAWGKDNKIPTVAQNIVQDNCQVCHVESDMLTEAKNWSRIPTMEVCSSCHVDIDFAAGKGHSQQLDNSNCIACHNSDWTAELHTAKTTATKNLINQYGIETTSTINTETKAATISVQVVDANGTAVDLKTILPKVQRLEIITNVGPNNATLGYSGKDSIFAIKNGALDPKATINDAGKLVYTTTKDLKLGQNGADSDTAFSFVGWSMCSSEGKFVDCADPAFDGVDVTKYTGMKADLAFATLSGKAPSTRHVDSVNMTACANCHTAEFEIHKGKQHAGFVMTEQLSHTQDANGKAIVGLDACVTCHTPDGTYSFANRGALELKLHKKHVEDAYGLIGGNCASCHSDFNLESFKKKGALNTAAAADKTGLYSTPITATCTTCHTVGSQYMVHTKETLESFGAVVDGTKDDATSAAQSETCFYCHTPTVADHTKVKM
T3 sequence (Q8EG33 entry or part of it): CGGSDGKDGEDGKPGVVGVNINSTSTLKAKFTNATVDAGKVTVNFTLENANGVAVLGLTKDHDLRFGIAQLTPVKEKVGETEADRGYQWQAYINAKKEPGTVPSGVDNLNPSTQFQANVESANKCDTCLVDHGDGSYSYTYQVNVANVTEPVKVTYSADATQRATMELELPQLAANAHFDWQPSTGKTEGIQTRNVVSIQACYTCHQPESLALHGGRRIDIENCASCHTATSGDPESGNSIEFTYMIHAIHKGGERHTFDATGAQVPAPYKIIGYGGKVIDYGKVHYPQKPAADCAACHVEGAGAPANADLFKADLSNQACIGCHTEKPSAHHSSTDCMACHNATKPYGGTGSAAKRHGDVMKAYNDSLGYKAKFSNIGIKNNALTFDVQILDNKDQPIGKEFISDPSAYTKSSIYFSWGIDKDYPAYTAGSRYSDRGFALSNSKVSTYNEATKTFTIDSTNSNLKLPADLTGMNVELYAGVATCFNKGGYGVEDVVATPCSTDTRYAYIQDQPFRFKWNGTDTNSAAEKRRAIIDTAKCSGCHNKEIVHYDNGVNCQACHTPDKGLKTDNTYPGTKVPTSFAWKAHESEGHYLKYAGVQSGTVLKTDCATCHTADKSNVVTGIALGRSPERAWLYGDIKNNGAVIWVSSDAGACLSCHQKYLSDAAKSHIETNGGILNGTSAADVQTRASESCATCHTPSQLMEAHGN
T1 sequence (F8UWD6 entry or part of it): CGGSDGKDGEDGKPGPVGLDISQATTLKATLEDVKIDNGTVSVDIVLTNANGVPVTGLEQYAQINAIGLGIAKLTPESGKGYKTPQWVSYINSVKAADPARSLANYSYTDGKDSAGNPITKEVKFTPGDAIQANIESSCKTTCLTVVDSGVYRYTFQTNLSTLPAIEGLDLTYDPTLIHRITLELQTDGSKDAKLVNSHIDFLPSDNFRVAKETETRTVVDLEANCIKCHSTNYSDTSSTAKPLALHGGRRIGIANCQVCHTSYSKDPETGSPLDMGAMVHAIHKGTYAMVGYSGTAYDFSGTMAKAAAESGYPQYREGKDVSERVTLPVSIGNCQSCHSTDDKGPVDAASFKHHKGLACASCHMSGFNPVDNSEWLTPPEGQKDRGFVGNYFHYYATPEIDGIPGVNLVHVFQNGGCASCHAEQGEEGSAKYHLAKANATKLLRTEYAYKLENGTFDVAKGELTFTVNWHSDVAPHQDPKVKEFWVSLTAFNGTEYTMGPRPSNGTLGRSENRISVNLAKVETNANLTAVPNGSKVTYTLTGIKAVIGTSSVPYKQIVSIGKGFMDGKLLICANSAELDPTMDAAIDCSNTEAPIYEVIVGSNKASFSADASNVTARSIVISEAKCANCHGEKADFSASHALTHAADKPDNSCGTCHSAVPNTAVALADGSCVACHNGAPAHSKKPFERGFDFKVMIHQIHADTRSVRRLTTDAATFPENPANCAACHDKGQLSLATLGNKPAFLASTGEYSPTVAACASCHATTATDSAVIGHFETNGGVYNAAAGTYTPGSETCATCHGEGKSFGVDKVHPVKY

SMILES | 1H NMR titration (heme methyl shifts) (UndA) | 1H NMR titration (heme methyl shifts) (MtrC [1]) | 1H NMR titration (heme methyl shifts) (OmcA [2]) | Kd (MtrC [3]) | Kd (OmcA [4]) | stopped-flow oxidation of reduced cytochrome at 552 nm (MtrF)
O=C1c2ccc(S(=O)(=O)O)cc2C(=O)c2ccc(S(=O)(=O)O)cc21 [AQDS, Anthraquinone 2,6-disulfonate] | the addition of AQDS promoted noticeable spectral changes in OmcA, MtrC, and UndA | the addition of AQDS promoted noticeable spectral changes in OmcA, MtrC, and UndA | the addition of AQDS promoted noticeable spectral changes in OmcA, MtrC, and UndA |  |  | 
Cc1cc2nc3c(=O)[nH]c(=O)nc-3n(C[C@H](O)[C@H](O)[C@H](O)COP(=O)(O)O)c2cc1C [FMN, Flavin mononucleotide] |  |  |  | 255 µM | 29 µM | 
C[n+]1c2ccccc2nc2ccccc21 [PMS, Phenazine methosulfate] |  | only promoted significant changes in the heme signals of OmcA and MtrC | RF, FMN, and PMS, only promoted significant changes in the heme signals of OmcA |  |  | PMS oxidized all the cytochromes at a rate too fast to be measured
Cc1cc2nc3c(=O)[nH]c(=O)nc-3n(C[C@H](O)[C@H](O)[C@H](O)CO)c2cc1C [RF, Riboflavin] |  | only promoted significant changes in the heme signals of OmcA and MtrC | RF, FMN, and PMS, only promoted significant changes in the heme signals of OmcA |  |  | 
